# Experimental data taken from US9708314B2, “Heterocyclic amide compound” (NISSAN CHEMICAL INDUSTRIES, LTD., priority 2013, dated 2017).
# What was measured:
# Type in all cases: in vivo
# [1] = test system: transplanted Oryza sativa; experiment: Test Example 1: effect on crop, application before weed generation in submerged conditions; details: Seventeenth Table; application herbicide amount 320 g/ha
# Method in brief: (§1)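 Pre-emergence water-surface application under 4 cm flooding, same day as sowing, with rice transplanted at 2.5 leaf stage. Dose given as g/ha. Plants grown at 25° C. to 30° C. and rated three weeks later on a 0 (≤5%) to 5 (≥90%) herbicidal-ratio scale.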
# [2] = test system: Echinochloa oryzacola Vasing.; experiment: Test Example 1: herbicidal activity, application before weed generation in submerged conditions; details: Seventeenth Table; application herbicide amount 320 g/ha
# Method in brief: as §1
# Monochoria vaginalis = experiment: as above; details: Seventeenth Table; application herbicide amount 320 g/ha
# Method in brief: as §1
# Scirpus juncoides = experiment: as above; details: Seventeenth Table; application herbicide amount 320 g/ha
# Method in brief: as §1
# [3] = test system: directly sowed Oryza sativa; experiment: Test Example 4: effect on crop by application to foliage (diluvial soil, plastic box); details: application to foliage, 320 g/ha
# Method in brief: (§2)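 Seeds sown in sterilized diluvial soil, covered ~1.5 cm, grown 14 days in greenhouse at 25° C. to 30° C. Emulsion formulation diluted in water to set rate (g/ha) and sprayed onto stems and leaves. Effect scored visually 3 weeks later on 0–5 scale (5 = ≥90% herbicidal ratio, 0 = ≤5%).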
# Zea mays = experiment: as above; details: application to foliage, 320 g/ha
# Method in brief: as §2
# Triticum aestivum = experiment: as above; details: application to foliage, 320 g/ha
# Method in brief: as §2
# Glycine max = experiment: as above; details: application to foliage, 320 g/ha
# Method in brief: as §2
# [4] = test system: Beta vulgaris ssp. vulgaris; experiment: as above; details: application to foliage, 320 g/ha
# Method in brief: as §2
# Brassica campestris L. = experiment: as above; details: application to foliage, 320 g/ha
# Method in brief: as §2
compound,measurement,setting,value
CC(C)c1nc2c(C(=O)Nc3nnnn3C)ccc(C(F)(F)F)n2n1 [7-002],a (transplanted Oryza sativa) effect on crop grade,[1],1 (Herbicidal ratio of 5% or more and less than 20%)
same,A (Echinochloa oryzicola Vasing.) herbicidal ratio grade,[2],3 (Herbicidal ratio of 40% or more and less than 70%)
same,C (Monochoria vaginalis) herbicidal ratio grade,Monochoria vaginalis,4 (Herbicidal ratio of 70% or more and less than 90%)
same,B (Scirpus juncoides) herbicidal ratio grade,Scirpus juncoides,3 (Herbicidal ratio of 40% or more and less than 70%)
same,"effect on crop, d (directly sowed Oryza sativa)",[3],2 (Herbicidal ratio of 20% or more and less than 40%)
same,"effect on crop, b (Zea mays)",Zea mays,0 (Herbicidal ratio of 5% or less (almost no effect))
same,"effect on crop, e (Triticum aestivum)",Triticum aestivum,0 (Herbicidal ratio of 5% or less (almost no effect))
same,"effect on crop, c (Glycine max)",Glycine max,0 (Herbicidal ratio of 5% or less (almost no effect))
same,"effect on crop, f (Beta vulgaris ssp. vulgaris)",[4],4 (Herbicidal ratio of 70% or more and less than 90%)
same,"effect on crop, g (Brassica campestris L.)",Brassica campestris L.,3 (Herbicidal ratio of 40% or more and less than 70%)
